Among the data in ChEMBL document CHEMBL4033641, “Design, synthesis and anticancer potential of NSC-319745 hydroxamic acid derivatives as DNMT and HDAC inhibitors” (Eur J Med Chem, 2017) are inhibition, IC50 and Activity values, retold here.

Data set [1] has as its target DNMT3B-DNMT3L complex (Homo sapiens) (UniProt Q9UBC3+Q9UJW3). Briefly: Inhibition of DNMT3B/3L (unknown origin) at 100 uM using biotinylated DNA oligonucleotides as substrate preincubated for 15 mins followed by substrate/[3H]-SAM addition measured after 4 hrs by liquid scintillation counting analysis. In kind it is protein-complex assay.
Data set [2] has as its target DNMT3A2/3L complex (Homo sapiens) (UniProt Q9Y6K1+Q9UJW3). Briefly: Inhibition of DNMT3A/3L (unknown origin) at 100 uM using biotinylated DNA oligonucleotides as substrate preincubated for 15 mins followed by substrate/[3H]-SAM addition measured after 4 hrs by liquid scintillation counting analysis. It counts as protein-complex assay.
For another data set, the target named is Histone deacetylase 1 (Homo sapiens, UniProt Q13547). The data set can be described thus: Inhibition of HDAC1 (unknown origin) preincubated for 15 mins followed by substrate addition measured after 60 mins by fluorescence assay.
Data set [3] has as its system Salmonella typhimurium. The data set can be described thus: Genotoxicity in Salmonella typhimurium TA97 at 50 times IC50 by Ames test. In kind it is toxicity. As to conditions: salmonella enterica subsp. enterica serovar typhimurium. On the technique in general: The Ames test uses bacterial strains that need an amino acid and regain growth without it when mutated back.

In data set [4] the test system is Salmonella typhimurium. The data set can be described thus: Genotoxicity in Salmonella typhimurium TA1535 at 50 times IC50 by Ames test. It counts as toxicity. The settings on record: salmonella enterica subsp. enterica serovar typhimurium.
Data set [5] concerns Salmonella typhimurium. The data set can be described thus: Genotoxicity in Salmonella typhimurium TA102 at 50 times IC50 by Ames test. It counts as toxicity. The settings on record: salmonella enterica subsp. enterica serovar typhimurium.
The target of data set [6] is DNA (cytosine-5)-methyltransferase 1 (Homo sapiens) (UniProt P26358). The data set can be described thus: Inhibition of DNMT1 (unknown origin) at 100 uM using poly(dI-dC).poly(dI-dC) as substrate preincubated for 15 mins followed by substrate/[3H]-SAM addition measured after 120 mins by liquid scintillation counting analysis.
A further data set relates to U-937. The data set can be described thus: Antiproliferative activity against human U937 cells after 72 hrs by MTT assay. It counts as functional, cell-based. As to conditions: U-937, 72 h.
For another data set, the system named is K562. The data set can be described thus: Antiproliferative activity against human K562 cells after 72 hrs by MTT assay. In kind it is functional, cell-based. The settings on record: K562, 72 h. Background: Formazan colour is commonly taken as a measure of viable cells.
Data set [7] concerns Salmonella typhimurium. The data set can be described thus: Genotoxicity in Salmonella typhimurium TA98 at 50 times IC50 by Ames test. It counts as toxicity. As to conditions: salmonella enterica subsp. enterica serovar typhimurium.
Data set [8] concerns the target T1, Protein deacetylase HDAC6 (Homo sapiens, UniProt Q9UBN7).
T1 sequence (Q9UBN7 whole entry): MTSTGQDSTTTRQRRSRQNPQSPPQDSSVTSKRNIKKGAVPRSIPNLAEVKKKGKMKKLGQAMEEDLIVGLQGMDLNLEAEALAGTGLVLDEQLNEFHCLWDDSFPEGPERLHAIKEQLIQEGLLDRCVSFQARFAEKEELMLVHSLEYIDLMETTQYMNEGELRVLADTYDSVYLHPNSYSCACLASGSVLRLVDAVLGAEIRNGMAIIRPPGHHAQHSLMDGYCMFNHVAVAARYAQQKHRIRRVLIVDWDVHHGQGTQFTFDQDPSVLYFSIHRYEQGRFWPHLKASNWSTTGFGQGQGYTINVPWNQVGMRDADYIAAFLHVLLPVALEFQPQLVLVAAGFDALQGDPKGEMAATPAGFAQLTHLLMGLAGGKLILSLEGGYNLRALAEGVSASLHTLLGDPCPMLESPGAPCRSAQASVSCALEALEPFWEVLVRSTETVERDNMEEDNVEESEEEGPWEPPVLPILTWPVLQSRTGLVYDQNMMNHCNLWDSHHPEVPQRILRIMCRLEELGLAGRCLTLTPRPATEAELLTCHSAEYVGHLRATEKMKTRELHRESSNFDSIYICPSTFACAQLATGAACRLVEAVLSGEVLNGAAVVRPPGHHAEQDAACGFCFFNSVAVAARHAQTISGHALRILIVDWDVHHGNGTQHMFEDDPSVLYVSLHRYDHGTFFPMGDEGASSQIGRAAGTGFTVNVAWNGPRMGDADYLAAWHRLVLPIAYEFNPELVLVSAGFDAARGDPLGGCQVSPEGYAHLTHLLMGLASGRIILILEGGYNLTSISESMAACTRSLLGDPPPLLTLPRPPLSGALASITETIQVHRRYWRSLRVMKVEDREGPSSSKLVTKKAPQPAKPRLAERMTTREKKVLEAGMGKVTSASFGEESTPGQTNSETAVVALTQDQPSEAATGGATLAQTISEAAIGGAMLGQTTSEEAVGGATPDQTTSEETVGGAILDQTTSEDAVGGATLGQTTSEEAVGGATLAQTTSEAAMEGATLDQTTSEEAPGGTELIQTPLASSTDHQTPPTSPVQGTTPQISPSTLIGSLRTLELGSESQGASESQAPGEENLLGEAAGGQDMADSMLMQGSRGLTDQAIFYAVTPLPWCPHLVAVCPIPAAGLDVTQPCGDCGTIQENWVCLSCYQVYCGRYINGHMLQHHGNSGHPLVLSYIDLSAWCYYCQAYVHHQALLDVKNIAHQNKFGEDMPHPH
The data set can be described thus: Inhibition of HDAC6 (unknown origin) preincubated for 15 mins followed by substrate addition measured after 60 mins by fluorescence assay.

pIC50: −log10 of the molar value.

Chain of Histone deacetylase 1 (Q13547 whole entry): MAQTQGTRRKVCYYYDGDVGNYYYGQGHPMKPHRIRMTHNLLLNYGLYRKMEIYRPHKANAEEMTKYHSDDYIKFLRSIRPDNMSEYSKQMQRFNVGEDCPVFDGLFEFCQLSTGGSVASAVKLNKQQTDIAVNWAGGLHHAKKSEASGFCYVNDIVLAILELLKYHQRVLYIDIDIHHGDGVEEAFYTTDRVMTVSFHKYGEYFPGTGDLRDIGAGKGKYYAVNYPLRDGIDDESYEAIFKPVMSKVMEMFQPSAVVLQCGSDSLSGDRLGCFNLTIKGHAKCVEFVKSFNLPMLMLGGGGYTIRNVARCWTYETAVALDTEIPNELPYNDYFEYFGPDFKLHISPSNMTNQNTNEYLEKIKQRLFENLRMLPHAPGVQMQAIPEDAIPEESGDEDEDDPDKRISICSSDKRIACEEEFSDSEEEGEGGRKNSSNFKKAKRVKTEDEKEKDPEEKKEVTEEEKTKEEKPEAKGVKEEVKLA
Chain of DNMT3A2/3L complex (Homo sapiens) (Q9UJW3 whole entry, looked up): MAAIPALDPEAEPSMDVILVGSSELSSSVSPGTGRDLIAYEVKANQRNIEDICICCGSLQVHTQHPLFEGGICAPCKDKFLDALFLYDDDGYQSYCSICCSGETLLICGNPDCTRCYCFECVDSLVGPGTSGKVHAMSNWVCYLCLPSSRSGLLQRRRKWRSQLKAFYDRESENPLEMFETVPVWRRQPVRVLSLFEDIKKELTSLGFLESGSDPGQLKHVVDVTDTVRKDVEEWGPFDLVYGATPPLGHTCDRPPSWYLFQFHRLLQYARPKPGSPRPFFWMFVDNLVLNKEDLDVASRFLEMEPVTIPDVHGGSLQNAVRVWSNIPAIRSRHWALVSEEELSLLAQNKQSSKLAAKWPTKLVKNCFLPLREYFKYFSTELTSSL
Chain of DNMT3A2/3L complex (Homo sapiens) (Q9Y6K1 whole entry, looked up): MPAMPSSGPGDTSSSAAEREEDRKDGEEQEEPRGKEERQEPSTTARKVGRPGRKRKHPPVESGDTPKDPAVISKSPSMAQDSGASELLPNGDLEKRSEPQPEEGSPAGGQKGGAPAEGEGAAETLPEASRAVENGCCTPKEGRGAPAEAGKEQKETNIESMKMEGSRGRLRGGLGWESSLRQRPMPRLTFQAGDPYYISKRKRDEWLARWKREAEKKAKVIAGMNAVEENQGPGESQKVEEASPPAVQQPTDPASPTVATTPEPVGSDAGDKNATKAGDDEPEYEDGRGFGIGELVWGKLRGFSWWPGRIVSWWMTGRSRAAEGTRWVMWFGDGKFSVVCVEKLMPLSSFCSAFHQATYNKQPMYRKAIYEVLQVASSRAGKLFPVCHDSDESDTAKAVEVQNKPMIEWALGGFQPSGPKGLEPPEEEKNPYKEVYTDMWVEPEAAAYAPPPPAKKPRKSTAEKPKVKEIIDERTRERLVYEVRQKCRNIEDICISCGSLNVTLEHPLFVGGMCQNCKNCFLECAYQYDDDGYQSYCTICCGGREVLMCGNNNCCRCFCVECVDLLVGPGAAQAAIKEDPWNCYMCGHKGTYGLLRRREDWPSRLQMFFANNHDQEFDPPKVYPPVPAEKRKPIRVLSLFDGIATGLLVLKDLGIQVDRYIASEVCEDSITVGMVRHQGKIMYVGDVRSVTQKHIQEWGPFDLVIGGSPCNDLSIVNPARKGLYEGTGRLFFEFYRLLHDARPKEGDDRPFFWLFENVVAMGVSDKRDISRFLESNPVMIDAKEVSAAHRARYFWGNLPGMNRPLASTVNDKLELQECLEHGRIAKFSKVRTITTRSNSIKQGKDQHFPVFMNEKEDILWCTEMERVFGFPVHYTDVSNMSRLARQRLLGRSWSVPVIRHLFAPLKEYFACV
Chain of DNMT3B-DNMT3L complex (Homo sapiens) (Q9UJW3 whole entry, looked up, other chains not shown): as the sequence (Q9UJW3 whole entry, looked up) above
Chain of DNA (cytosine-5)-methyltransferase 1 (Homo sapiens) (P26358 whole entry): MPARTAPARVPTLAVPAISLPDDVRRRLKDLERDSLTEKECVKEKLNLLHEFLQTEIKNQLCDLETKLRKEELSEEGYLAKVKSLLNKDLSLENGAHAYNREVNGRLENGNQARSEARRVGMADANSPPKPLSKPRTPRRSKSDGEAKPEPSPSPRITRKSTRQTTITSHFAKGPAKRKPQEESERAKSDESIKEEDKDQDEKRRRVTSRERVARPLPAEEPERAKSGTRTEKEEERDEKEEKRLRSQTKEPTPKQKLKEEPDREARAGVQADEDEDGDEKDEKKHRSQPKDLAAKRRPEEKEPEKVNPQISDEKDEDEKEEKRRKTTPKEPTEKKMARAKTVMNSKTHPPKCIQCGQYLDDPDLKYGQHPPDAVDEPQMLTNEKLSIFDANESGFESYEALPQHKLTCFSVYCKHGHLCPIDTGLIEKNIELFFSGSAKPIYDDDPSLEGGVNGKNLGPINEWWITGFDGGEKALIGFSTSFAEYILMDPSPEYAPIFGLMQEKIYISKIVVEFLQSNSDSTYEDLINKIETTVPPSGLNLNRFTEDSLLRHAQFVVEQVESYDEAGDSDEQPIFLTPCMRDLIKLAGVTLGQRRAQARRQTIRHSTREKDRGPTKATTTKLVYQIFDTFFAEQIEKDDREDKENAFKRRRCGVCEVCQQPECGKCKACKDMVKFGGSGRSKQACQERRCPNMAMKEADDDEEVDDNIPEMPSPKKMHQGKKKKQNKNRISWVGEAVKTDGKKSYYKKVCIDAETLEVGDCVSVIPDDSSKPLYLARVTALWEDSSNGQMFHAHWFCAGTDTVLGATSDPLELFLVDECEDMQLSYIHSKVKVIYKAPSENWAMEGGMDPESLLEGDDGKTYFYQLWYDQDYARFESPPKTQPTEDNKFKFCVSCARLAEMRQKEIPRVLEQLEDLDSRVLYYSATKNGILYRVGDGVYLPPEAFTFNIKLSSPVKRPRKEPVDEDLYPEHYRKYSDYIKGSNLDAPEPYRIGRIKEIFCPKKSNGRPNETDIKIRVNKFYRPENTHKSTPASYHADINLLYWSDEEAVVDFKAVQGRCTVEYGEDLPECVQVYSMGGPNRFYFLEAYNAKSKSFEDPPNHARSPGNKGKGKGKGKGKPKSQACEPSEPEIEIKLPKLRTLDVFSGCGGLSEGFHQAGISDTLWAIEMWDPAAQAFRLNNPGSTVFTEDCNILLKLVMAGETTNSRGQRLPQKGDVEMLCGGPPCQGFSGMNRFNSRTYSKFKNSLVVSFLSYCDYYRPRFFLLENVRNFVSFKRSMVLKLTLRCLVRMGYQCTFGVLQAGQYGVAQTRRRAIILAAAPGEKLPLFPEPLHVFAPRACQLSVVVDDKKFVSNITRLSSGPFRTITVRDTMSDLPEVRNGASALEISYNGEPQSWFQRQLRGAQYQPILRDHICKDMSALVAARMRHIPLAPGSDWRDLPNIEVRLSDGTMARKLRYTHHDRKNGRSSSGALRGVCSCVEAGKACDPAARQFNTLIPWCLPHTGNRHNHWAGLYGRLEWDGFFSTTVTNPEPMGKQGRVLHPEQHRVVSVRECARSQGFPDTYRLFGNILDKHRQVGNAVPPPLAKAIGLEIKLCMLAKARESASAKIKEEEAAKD

For `O=C(/C=C/c1ccc(CCNC(=O)c2ccc3c(c2)OCCO3)cc1)NO`, the inhibition in data set [1] is 28 to 28.1%; in data set [2], -0.26%; in [6], 47.9 to 48%. For the same compound, the pIC50 at Histone deacetylase 1 was 7.95; in the data set with U-937, 5.53; in the data set with K562, 5.75; in [8], 7.93. Also, the Activity entry with Salmonella typhimurium [3], with Salmonella typhimurium [4], in the data set on Salmonella typhimurium [5] and in the data set with Salmonella typhimurium [7] was “Non-Toxic” in each case.
On to `COc1cc(C(=O)NCCc2ccc(/C=C/C(=O)NO)cc2)ccc1O`, for which the inhibition in data set [1] was found to be 15.8%; in data set [2], 11.2%; in [6], 27.9%. Moreover, the pIC50 on Histone deacetylase 1 is 8.09; with U-937 it was 4.97; with K562, 5.29; in data set [8], 7.97.
In the case of `O=C(/C=C/c1ccc(CCNC(=O)c2c[nH]c3ncccc23)cc1)NO`, the results for the inhibition in [1], in data set [2] and in [6] were 7.23%, 21% and 28.1%, respectively. Further, the pIC50 was 7.84 against Histone deacetylase 1, 4.75 in the data set with U-937, 4.75 in the data set with K562 and 8.08 in [8].
For the compound `COc1ccc(Cl)cc1C(=O)NCCc1ccc(CCC(=O)NO)cc1`, the inhibition is 8.26% in [1], 4.64 to 5% in data set [2] and 23.8 to 24% in [6]. For the same compound, the pIC50 is 7.14 on Histone deacetylase 1, 5.40 with U-937, 5.21 with K562 and 7.38 in data set [8]. In addition, the Activity result with Salmonella typhimurium [3] is “Non-Toxic”; with Salmonella typhimurium [4], “Non-Toxic”; in the data set on Salmonella typhimurium [5], “Toxic”; in the data set on Salmonella typhimurium [7], “Non-Toxic”.
Take `O=C(/C=C/c1ccc(CCNC(=O)c2cncc(F)c2)cc1)NO`: the inhibition was 1.9% in data set [1], 0.9% in [2] and 44 to 44.2% in [6]. In addition, the pIC50 is 7.59 against Histone deacetylase 1, 5.34 in the data set with U-937, 5.15 with K562 and 7.44 in data set [8]. Moreover, the Activity entry with Salmonella typhimurium [3], with Salmonella typhimurium [4], in the data set with Salmonella typhimurium [5] and with Salmonella typhimurium [7] was “Non-Toxic” throughout.
On to `O=C(/C=C/c1ccc(CCNC(=O)c2ccc3c(c2)OCO3)cc1)NO`, for which the inhibition is 9.89% in [1], -1.03% in data set [2] and 18.4% in data set [6]. The pIC50 at Histone deacetylase 1 is 8.14; with U-937 it was 6.28; in the data set on K562 it was 5.95; in data set [8] it was 8.15. The Activity result is “Non-Toxic” in the data set with Salmonella typhimurium [3], “Toxic” in the data set with Salmonella typhimurium [4], “Non-Toxic” with Salmonella typhimurium [5] and “Non-Toxic” in the data set on Salmonella typhimurium [7].
Consider `Cc1cc(Nc2ccc(NC(=O)c3ccc(Nc4ccnc5ccccc45)cc3)cc2)nc(N)n1`, for which the pIC50 in the data set on U-937 is 5.81; in the data set on K562 it was 5.94.
With `O=C(/C=C/c1ccc(CCNC(=O)c2ccc3ncccc3c2)cc1)NO`, the inhibition is 50 to 50.1% in [1], 19.1% in [2] and 22.9% in data set [6]. The pIC50 against Histone deacetylase 1 was 8.40; in the data set with U-937 it was 5.90; in the data set with K562 it was 5.50; in [8], 8.28. The Activity entry is recorded as “Non-Toxic” with Salmonella typhimurium [3], “Non-Toxic” in the data set with Salmonella typhimurium [4], “Non-Toxic” in the data set on Salmonella typhimurium [5] and “Toxic” in the data set with Salmonella typhimurium [7].
Turning to `COc1ccc(Cl)cc1C(=O)NCCc1cccc(/C=C/C(=O)NO)c1`, the figures for the inhibition in data set [1], in data set [2] and in [6] were 3.09%, 1.97% and 36 to 36.4%, respectively. Besides, the pIC50 at Histone deacetylase 1 is 7.46; with U-937, 5.97; in the data set on K562 it was 5.44; in data set [8], 7.40. The Activity result with Salmonella typhimurium [3], with Salmonella typhimurium [4], in the data set on Salmonella typhimurium [5] and in the data set on Salmonella typhimurium [7] was “Non-Toxic” in each case.

Broadly, the inhibition is the drop in the measured response relative to a control, in per cent. Usually pIC50 stands for −log10 of the IC50, conventionally taken in molar units. Lower therefore signals a large IC50.
